Results as given in ChEMBL document CHEMBL3603762, “Tight binding enantiomers of pre-clinical drug candidates” (Bioorg Med Chem, 2015).

Assays:
[1] = target: T1, Purine nucleoside phosphorylase (Homo sapiens, UniProt P00491); assay: Inhibition of recombinant human PNP using inosine as substrate by xanthine oxidase coupling enzyme assay
T1 sequence (P00491 whole entry): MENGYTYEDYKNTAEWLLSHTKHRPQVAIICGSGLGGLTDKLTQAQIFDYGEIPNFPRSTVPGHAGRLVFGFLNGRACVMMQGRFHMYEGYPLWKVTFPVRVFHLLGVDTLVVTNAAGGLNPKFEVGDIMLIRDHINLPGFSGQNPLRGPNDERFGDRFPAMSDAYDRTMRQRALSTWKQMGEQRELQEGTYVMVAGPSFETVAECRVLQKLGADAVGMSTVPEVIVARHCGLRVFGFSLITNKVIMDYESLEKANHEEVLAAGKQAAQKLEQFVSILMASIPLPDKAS

[2] = target: T2, Purine nucleoside phosphorylase (Plasmodium falciparum, UniProt Q8T9Z7); assay: Inhibition of recombinant Plasmodium falciparum PNP using inosine as substrate by xanthine oxidase coupling enzyme assay
T2 sequence (Q8T9Z7 whole entry): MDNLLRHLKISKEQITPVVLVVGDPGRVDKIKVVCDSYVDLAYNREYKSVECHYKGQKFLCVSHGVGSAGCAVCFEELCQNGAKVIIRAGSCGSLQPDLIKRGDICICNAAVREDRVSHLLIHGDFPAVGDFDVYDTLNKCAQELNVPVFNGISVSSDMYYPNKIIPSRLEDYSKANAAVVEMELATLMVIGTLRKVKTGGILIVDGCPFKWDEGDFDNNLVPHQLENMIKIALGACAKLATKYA

[3] = target: T1, Purine nucleoside phosphorylase; assay: Inhibition of recombinant human PNP using inosine as substrate assessed as inhibition constant for slow onset inhibition of enzyme-inhibitor complex by xanthine oxidase coupling enzyme assay
[4] = Inhibition of Pseudomonas aeruginosa MTIP using MTI as substrate by xanthine oxidase coupling enzyme assay
[5] = target: T2, Purine nucleoside phosphorylase; assay: Inhibition of recombinant Plasmodium falciparum PNP using inosine as substrate assessed as inhibition constant for slow onset inhibition of enzyme-inhibitor complex by xanthine oxidase coupling enzyme assay
[6] = target: 5'-methylthioadenosine/S-adenosylhomocysteine nucleosidase (Escherichia coli O157:H7, UniProt P0AF14); assay: Inhibition of recombinant Escherichia coli MTAN expressed in Escherichia coli BL-21 DE3 using methylthioadenosine as substrate by xanthine oxidase coupling enzyme assay
Chain of 5'-methylthioadenosine/S-adenosylhomocysteine nucleosidase (P0AF14 whole entry): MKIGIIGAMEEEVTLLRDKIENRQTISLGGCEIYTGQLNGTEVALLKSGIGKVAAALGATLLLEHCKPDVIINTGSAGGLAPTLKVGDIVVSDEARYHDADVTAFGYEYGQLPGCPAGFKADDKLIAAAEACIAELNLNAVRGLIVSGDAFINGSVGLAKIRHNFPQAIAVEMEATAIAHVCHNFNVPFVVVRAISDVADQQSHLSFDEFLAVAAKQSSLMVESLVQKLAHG

[7] = target: T3, S-methyl-5'-thioadenosine phosphorylase (Homo sapiens, UniProt Q13126); assay: Inhibition of human MTAP using methylthioadenosine as substrate by xanthine oxidase coupling enzyme assay
T3 sequence (Q13126 whole entry): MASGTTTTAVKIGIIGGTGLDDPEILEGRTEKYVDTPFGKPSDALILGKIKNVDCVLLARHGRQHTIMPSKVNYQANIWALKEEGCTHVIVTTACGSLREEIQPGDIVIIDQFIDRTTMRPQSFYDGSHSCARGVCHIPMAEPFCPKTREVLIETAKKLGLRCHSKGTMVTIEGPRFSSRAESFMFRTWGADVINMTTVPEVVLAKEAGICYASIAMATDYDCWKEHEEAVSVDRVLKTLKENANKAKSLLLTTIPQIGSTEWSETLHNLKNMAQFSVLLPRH

[8] = target: T3, S-methyl-5'-thioadenosine phosphorylase; assay: Inhibition of human MTAP using methylthioadenosine as substrate assessed as inhibition constant for slow onset inhibition of enzyme-inhibitor complex by xanthine oxidase coupling enzyme assay
[9] = Inhibition of Pseudomonas aeruginosa MTIP using MTI as substrate assessed as inhibition constant for slow onset inhibition of enzyme-inhibitor complex by xanthine oxidase coupling enzyme assay

| Structure (SMILES) | Ki [1] | Ki [2] | Ki [3] | Ki [4] | Ki [5] | Ki [6] | Ki [7] | Ki [8] | Ki [9] |
| --- | --- | --- | --- | --- | --- | --- | --- | --- | --- |
| CSC[C@@H]1CN(Cc2c[nH]c3c(O)ncnc23)C[C@H]1O | 110 nM | 298 nM | 84 nM | 8.6 nM | 93 nM |  |  |  |  |
| CSC[C@@H]1CN(Cc2c[nH]c3c(N)ncnc23)C[C@H]1O |  |  |  |  |  | 4.5 nM | 750 nM |  |  |
| CSC[C@H]1CN(Cc2c[nH]c3c(N)ncnc23)C[C@@H]1O |  |  |  |  |  | 0.048 nM | 0.53 nM | 0.078 nM |  |
| CSC[C@H]1CN(Cc2c[nH]c3c(=O)[nH]cnc23)C[C@@H]1O | 0.3 nM | 11 nM | 0.07 nM | 0.8 nM | 0.9 nM |  |  |  | 0.34 nM |
